Experimental findings from US8211886B2, “Thiadiazinone derivatives” (Merck Patent Gesellschaft mit beschrankter Haftung, priority 2007, dated 2012) are described below.

The target in the experiment is T1, Met kinase (Homo sapiens, UniProt P08581).
T1 construct: 6His (N); purchased Upstate 14-526; host or cells: Sf21 insect cells (S. frugiperda), baculovirus
T1 sequence (P08581 25-1390): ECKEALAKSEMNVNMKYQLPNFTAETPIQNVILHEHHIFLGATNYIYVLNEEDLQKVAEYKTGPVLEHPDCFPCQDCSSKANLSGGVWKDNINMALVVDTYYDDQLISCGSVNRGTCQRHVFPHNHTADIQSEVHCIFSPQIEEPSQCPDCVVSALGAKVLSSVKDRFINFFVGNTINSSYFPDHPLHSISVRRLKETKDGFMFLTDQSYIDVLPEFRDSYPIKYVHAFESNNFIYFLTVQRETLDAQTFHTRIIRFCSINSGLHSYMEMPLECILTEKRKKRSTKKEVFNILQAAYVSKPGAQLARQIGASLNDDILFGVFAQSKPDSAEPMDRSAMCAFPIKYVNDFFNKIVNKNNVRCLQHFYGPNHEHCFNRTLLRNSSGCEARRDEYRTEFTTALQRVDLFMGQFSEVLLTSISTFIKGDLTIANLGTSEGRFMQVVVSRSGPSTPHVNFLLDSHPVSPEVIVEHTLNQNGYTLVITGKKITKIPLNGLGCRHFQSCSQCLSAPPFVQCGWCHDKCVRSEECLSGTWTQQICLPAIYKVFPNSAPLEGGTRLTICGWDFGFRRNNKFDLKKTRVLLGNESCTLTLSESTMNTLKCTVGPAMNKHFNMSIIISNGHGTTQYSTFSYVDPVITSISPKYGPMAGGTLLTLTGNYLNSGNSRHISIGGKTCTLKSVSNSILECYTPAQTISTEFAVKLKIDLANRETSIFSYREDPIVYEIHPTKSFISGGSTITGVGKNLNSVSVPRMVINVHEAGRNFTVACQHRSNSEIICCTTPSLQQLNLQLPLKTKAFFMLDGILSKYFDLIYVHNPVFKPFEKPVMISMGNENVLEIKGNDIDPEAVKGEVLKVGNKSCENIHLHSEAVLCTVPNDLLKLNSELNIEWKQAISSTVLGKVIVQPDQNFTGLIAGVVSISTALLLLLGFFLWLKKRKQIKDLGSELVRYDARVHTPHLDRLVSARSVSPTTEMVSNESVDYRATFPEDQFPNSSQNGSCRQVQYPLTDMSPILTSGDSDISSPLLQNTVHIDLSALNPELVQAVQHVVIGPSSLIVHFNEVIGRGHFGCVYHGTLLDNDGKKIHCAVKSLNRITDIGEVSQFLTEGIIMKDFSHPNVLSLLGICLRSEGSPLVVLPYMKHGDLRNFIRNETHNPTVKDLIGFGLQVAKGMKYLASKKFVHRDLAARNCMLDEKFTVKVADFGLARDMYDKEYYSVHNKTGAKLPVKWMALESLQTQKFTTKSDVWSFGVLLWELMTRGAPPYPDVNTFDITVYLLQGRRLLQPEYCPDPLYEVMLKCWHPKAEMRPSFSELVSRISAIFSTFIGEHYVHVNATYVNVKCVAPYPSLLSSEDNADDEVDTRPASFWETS
As to the kind of experiment: Met kinase inhibition (enzyme assay), flashplate method. Type of experiment: biochemical. Conditions: 33P-ATP, substrate pAGLT, 3 hrs at room temperature. The source says:
According to the manufacturer's data (Met, active, upstate, catalogue No. 14-526), Met kinase is expressed for the purposes of protein production in insect cells (Sf21; S. frugiperda) and subsequent affinity-chromatographic purification as “N-terminal 6His-tagged” recombinant human protein in a baculovirus expression vector.
Flashplate Method (Met Kinase)
The test plates used are 96-well Flashplate^R microtitre plates from Perkin Elmer (Cat. No. SMP200). The components of the kinase reaction described below are pipetted into the assay plate. The Met kinase and the substrate poly Ala-Glu-Lys-Tyr, (pAGLT, 6:2:5:1), are incubated for 3 hrs at room temperature with radioactively labelled ^33P-ATP in the presence and absence of test substances in a total volume of 100 μl. The reaction is terminated using 150 μl of a 60 mM EDTA solution. After incubation for a further 30 min at room temperature, the supernatants are filtered off with suction, and the wells are washed three times with 200 μl of 0.9% NaCl solution each time. The measurement of the bound radioactivity is carried out by means of a scintillation measuring instrument (Topcount NXT, Perkin-Elmer).
The full value used is the inhibitor-free kinase reaction. This should be approximately in the range 6000-9000 cpm. The pharmacological zero value used is staurosporin in a final concentration of 0.1 mM. The inhibitory values (IC50) are determined using the RS1_MTS program.
Kinase reaction conditions per well: • 30 μl of assay buffer • 10 μl of substance to be tested in assay buffer with 10% of DMSO • 10 μl of ATP (final concentration 1 μM cold, 0.35 μCi of ^33P-ATP) • 50 μl of Met kinase/substrate mixture in assay buffer; • (10 ng of enzyme/well, 50 ng of pAGLT/well)
Solutions used: • Assay buffer: • 50 mM HEPES • 3 mM magnesium chloride • 3 μM sodium orthovanadate • 3 mM manganese(II) chloride • 1 mM dithiothreitol (DTT) • pH=7.5 (to be set using sodium hydroxide) • Stop solution: • 60 mM Titriplex III (EDTA) • ^33P-ATP: Perkin-Elmer; • Met kinase: Upstate, Cat. No. 14-526, Stock 1 μg/10 μl; spec. activity 954 U/mg; • Poly-Ala-Glu-Lys-Tyr, 6:2:5:1: Sigma Cat. No. P1152 In-vivo Tests (FIG. 1/1)
In turn, `N#Cc1ccc(C2=NN(Cc3cccc(-c4ncc(N)cn4)c3)C(=O)SC2)cc1` [Compound A6, 4-{3-[3-(5-Aminopyrimidin-2-yl)benzyl]-2-oxo-3,6-dihydro-2H-1,3,4-thiadiazin-5-yl}benzonitrile] registered an IC50 of 10 to 1000 nM.
`CN(C)CCCOc1cnc(-c2cccc(CN3N=C(c4ccc(C#N)cc4)CSC3=O)c2)nc1` [Compound A9, 4-(3-{3-[5-(3-Dimethylaminopropoxy)pyrimidin-2-yl]-benzyl}-2-oxo-3,6-dihydro-2H-1,3,4-thiadiazin-5-yl)-benzonitrile] had an IC50 of 10 to 1000 nM.
The compound `Nc1cnc(-c2cccc(CN3N=C(c4nccs4)CSC3=O)c2)nc1` [Compound A10, 3-[3-(5-Aminopyrimidin-2-yl)benzyl]-5-thiazol-2-yl-3,6-dihydro-1,3,4-thiadiazin-2-one] came in with an IC50 of 10 to 1000 nM.
The figure for `COc1ccc(C2=NN(Cc3cccc(-c4ncc(N)cn4)c3)C(=O)SC2)cc1OC` [Compound A5, 3-[3-(5-Aminopyrimidin-2-yl)benzyl]-5-(3,4-dimethoxyphenyl)-3,6-dihydro-1,3,4-thiadiazin-2-one] is 10 to 1000 nM; for `Nc1cnc(-c2cccc(CN3N=C(c4cc(F)cc(F)c4)CSC3=O)c2)nc1` [Compound A4, 3-[3-(5-aminopyrimidin-2-yl)benzyl]-5-(3,5-difluorophenyl)-3,6-dihydro-1,3,4-thiadiazin-2-one] it is 10 to 1000 nM.
To `Cc1cnc(-c2cccc(CN3N=C(c4nccs4)CSC3=O)c2)nc1` [Compound A1, 3-[3-(5-methylpyrimidin-2-yl)benzyl]-5-thiazol-2-yl-3,6-dihydro-1,3,4-thiadiazin-2-one] belongs 10 to 1000 nM; to `CN(C)/C=N/c1cnc(-c2cccc(CN3N=C(c4nccs4)CSC3=O)c2)nc1` [Compound A2, N,N-Dimethyl-N′-{2-[3-(2-oxo-5-thiazol-2-yl-6H-1,3,4-thiadiazin-3-ylmethyl)phenyl]pyrimidin-5-yl}formamidine], 10 to 1000 nM; to `Cc1nc(-c2cccc(CN3N=C(c4nccs4)CSC3=O)c2)no1` [Compound A3, 3-[3-(5-Methyl-1,2,4-oxadiazol-3-yl)benzyl]-5-thiazol-2-yl-3,6-dihydro-1,3,4-thiadiazin-2-one], 1000 to 10000 nM.
The figure for `CN(C)CCCOc1cnc(-c2cccc(CN3N=C(c4cc(F)cc(F)c4)CSC3=O)c2)nc1` [Compound A8, 5-(3,5-Difluorophenyl)-3-{3-[5-(3-dimethylamino-propoxy)pyrimidin-2-yl]benzyl}-3,6-dihydro-1,3,4-thiadiazin-2-one] is 10 to 1000 nM.
Compound `CN(C)CCCOc1cnc(-c2cccc(CN3N=C(c4nccs4)CSC3=O)c2)nc1` [Compound A7, 3-{3-[5-(3-Dimethylaminopropoxy)pyrimidin-2-yl]benzyl}-5-thiazol-2-yl-3,6-dihydro-1,3,4-thiadiazin-2-one] displayed an IC50 of 10 to 1000 nM.

In general, IC50 refers to the concentration that gives 50% inhibition. High values mean a need for much substance, low ones inhibition by little substance.
